The values that follow come from patent publication US6150335A, “Tic-containing opioid dipeptide derivatives useful as analgesics” (Astra AB, priority 1996, dated 2000).

Where a SMILES comes first, the peptide text is derived from it. [ ]: non-standard residue; d: D form. The star is where a group is joined. Tic = O=C(O)[C@@H]1Cc2ccccc2CN1; NHPhenethyl = c1ccc(CCN*)cc1

One series addresses T1, μ opioid receptor (Rattus norvegicus, UniProt P33535).
T1 construct: Male Sprague-Dawley rats (300-350 g) from the Canadian Breeding Laboratories were decapitated and after removal of the cerebellum the brains were homogenized; from tissue; host or cells: rat brain (without cerebellum) membranes, male Sprague-Dawley
Kind of series: μ opioid receptor binding assay, displacement of [3H]DAMGO from rat brain membranes. The conditions noted are these: [3H]DAMGO 0.7 nM, Cheng-Prusoff. The protocol: (§1) μ and δ opioid receptor binding constants (Ki^μ,Ki^δ) of the compounds were determrined by displacement of relatively selective μ and δ radioligands from binding sites in rat brain membrane preparations calculated from the measured IC50 values on the basis of the equation by Cheng and Prusoff, (Y. C. Cheng and W. H. Prusoff Biochem. Pharmnacol. 22, 3099-3102 (1973)).
(§2) The μ-, δ- and κ-opioid receptor affinities of all new analogs were determined in binding assays based on displacement of μ-, δ- and κ-selective radioligands from rat brain membrane binding sites. In the case of κ-ligands guinea pig brain homogenates were used, since the relative proportion of κ-binding sites is higher in guinea pig brain than in rat brain. The experimental procedure being used in our laboratory represents a modified version of the binding assay described by Pasternak et al. (Mol. Pharnacol. 11, 340-351 (1975)). Male Sprague-Dawley rats (300-350 g) from the Canadian Breeding Laboratories were decapitated and after removal of the cerebellum the brains were homogenized in 30 volumes of ice-cold standard buffer (50 mnM Tris HCl , pH 7.7). After centrifugation at 30,000×g for 30 min at 4° C. the membranes were reconstituted in the original volume of standard buffer and incubated for 30 min at 37° C. (to release bound endogenous ligands). Subsequent centrifugation and resuspension of the pellet in the initial volume of fresh standard buffer yielded the final membrane suspension. Aliquots (2 ml) of the membrane preparations were incubated for 1-2 h at 25° C. with 1 ml standard buffer containing the peptide to be tested and one of the following radioligands at the final concentration indicated: [^3 H]DAMGO, μ-selective, 0.7 nM; [^3 H]DSLET, μ-selective, 1.0 nM; and [^3 H]U69,563, κ-selective, 0.5 nM. The incubation was terminated by filtration through Whatman GF/B filters under vacuum at 4° C. Following two washings with 5 ml portions of ice-cold standard buffer the filters were transferred to scintillation vials and treated with 1 ml Protosol (New England Nuclear) for 30 min prior to addition of 0.5 ml acetic acid and 10 ml Aquasol (New England Nuclear). After shaking for 30 min the vials were counted at an efficiency of 40-45%. All experiments were performed in duplicate and repeated at least three times. Specific binding of each of the three radioligands was defined by performing incubations in the presence of cold DAMGO, DSLET and U69,563, respectively, at a concentration of 1 micromolar. Values of half-maximal inhibition (IC50) of specific binding were obtained graphically from semilogarithmic plots. From the measured IC50-values, binding inhibition constants (Ki) were calculated based on Cheng and Prusoff's equation (Biochem. Pharmacol. 22, 3099-3102 (1973)). Ratios of the Ki -values determined in the μ-, δ- and κ-representative binding assays are a measure of the receptor selectivity of the compound under investigation (e.g. Ki^μ /Ki^μ indicates the selectivity for δ-receptors versus μ-receptors).
In general terms: Displacement assays read how much labelled ligand stays bound in the presence of the test substance.

Series [1] deals with δ opioid receptor. The conditions noted are these: reported at 23rd European Peptide Symposium 1994; cited from earlier work.
Another series has as its system guinea pig ileum (GPI). Kind of series: Guinea pig ileum (GPI) bioassay: inhibition of electrically evoked contractions. The following applies: normalized with [Leu5]enkephalin standard, effect primarily μ-mediated. It is filed as cell-based. On the procedure: (§3) Bioassays based on inhibition of electrically evoked contractions of the mouse vas deferens (MVD) and of the guinea pig ileum (GPI) were performed. In the GPI assay the opioid effect is primarily mediated by μ opioid receptors, whereas in the MVD assay the inhibition of the contractions is mostly due to interaction with δ opioid receptors.
(§4) The GPI and MVD bioassays were carried out as reported in P. W. Schiller et al., Biochem. Biophys. Res. Commun. 85, 1332-1338 (1978) and J. DiMaio et al., J. Med. Chem. 25, 1432-1438 (1982). A log-dose response curve was determined with [Leu^5 ]enkephalin as standard for each ileum and vas preparation, and IC50 values of the compounds being tested were normalized according to A. A. Waterfield et al., Eur. J. Pharmacol. 58, 11-18 (1979).

In the next series the test system is mouse vas deferens (MVD). Nature of the series: Mouse vas deferens (MVD) bioassay: inhibition of electrically evoked contractions. Type of series: cell-based. The following applies: for GPI/MVD IC50 ratio: ratio of GPI IC50 to MVD IC50. On the procedure:
as §3, §4

For series [2], the target named is T2, δ opioid receptor (Rattus norvegicus, UniProt P33533).
T2 construct: Male Sprague-Dawley rats (300-350 g) from the Canadian Breeding Laboratories were decapitated and after removal of the cerebellum the brains were homogenized; from tissue; host or cells: rat brain (without cerebellum) membranes, male Sprague-Dawley
T2 sequence (P33533 whole entry): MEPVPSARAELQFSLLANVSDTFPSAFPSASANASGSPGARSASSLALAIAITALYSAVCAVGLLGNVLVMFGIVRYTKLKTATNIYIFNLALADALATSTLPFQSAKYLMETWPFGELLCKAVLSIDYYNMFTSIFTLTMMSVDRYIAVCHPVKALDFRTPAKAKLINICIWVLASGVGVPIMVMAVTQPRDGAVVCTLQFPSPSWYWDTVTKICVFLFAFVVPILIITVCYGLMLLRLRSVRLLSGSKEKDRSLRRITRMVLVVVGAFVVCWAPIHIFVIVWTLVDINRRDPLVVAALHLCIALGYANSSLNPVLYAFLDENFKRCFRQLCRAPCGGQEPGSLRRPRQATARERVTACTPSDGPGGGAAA
Kind of series: δ opioid receptor binding assay, displacement of [3H]DSLET from rat brain membranes. The following applies: for Ki: rat brain membranes, [3H]DSLET 1.0 nM, Cheng-Prusoff; for Ki^μ/Ki^δ: δ versus μ receptor selectivity. On the procedure: as §1
as §2, with “[…];” for “[^3 H]DSLET, μ-selective, 1.0 nM;”

Another series relates to mouse tail flick test. The conditions noted are these: J. Kamei et al. 1995; cited from earlier work.
The next series has as its system mice. The conditions noted are these: S. D. Comer et al. 1993; cited from earlier work.
The mark [3] stands for this setting: inhibition of electrically evoked contractions, normalized with [Leu5]enkephalin standard, effect mostly δ-mediated.

T1 sequence (P33535 whole entry): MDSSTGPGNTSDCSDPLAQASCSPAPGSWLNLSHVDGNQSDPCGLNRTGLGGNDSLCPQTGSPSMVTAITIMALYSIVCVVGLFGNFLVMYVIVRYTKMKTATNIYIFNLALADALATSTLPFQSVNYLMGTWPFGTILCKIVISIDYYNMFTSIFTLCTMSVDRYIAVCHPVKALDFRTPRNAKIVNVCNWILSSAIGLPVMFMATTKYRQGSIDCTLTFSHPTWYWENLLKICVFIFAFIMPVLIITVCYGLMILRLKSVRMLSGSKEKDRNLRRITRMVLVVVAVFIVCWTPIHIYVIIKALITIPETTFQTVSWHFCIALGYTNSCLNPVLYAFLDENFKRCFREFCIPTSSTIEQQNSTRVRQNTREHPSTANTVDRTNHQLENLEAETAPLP

Take `N[C@@H](Cc1ccc(O)cc1)C(=O)N1Cc2ccccc2C[C@H]1C(=O)NCCc1ccccc1` [H-Tyr-Tic-NH--CH2 --CH2 --Ph, reference compound] (H-Tyr-[Tic]-NHPhenethyl): the Ki (as a rule, the dissociation constant of the complex between target and ligand, obtained from inhibition or displacement) was found to be 69.1 nM at μ opioid receptor and 5.22 ± 0.02 nM at δ opioid receptor [2]. In addition, in the series with δ opioid receptor [1], the “δ agonist / antagonist properties” value is “full, but only moderately potent δ agonist”. In addition, the IC50 – broadly, the concentration that inhibits the measured activity by half – was 2120 nM in the series with guinea pig ileum (GPI) and 82 ± 10 nM in the series with mouse vas deferens (MVD) (setting [3]). The “GPI/MVD IC50 ratio” value in the series on mouse vas deferens (MVD) is given as 25.9. For the same compound, the “Ki^μ/Ki^δ” value on δ opioid receptor [2] came out at 13.2.

As for `N[C@@H](Cc1ccc(O)cc1)C(=O)N1Cc2ccccc2C[C@H]1C(=O)NCCc1ccccc1-c1ccccc1` [Example 7], the Ki amounted to 73.5 ± 7.1 nM on μ opioid receptor and 4.76 ± 1.7 nM at δ opioid receptor [2]. The figures for the IC50 in the series with guinea pig ileum (GPI) and with mouse vas deferens (MVD) (setting [3]) were greater than 10000 nM and 418 ± 55 nM, respectively. Also, the “GPI/MVD IC50 ratio” value with mouse vas deferens (MVD) is reported as greater than 23.9. For the same compound, the “Ki^μ/Ki^δ” value at δ opioid receptor [2] was found to be 15.4.

On to `N[C@@H](Cc1ccc(O)cc1)C(=O)N1Cc2ccccc2C[C@H]1C(=O)N[C@@H]1CCc2ccccc2C1` [Example 20, H-Tyr-Tic-2-R-At (At = aminotetralin)], for which the affinity on μ opioid receptor, expressed as Ki, was 26.3 ± 2.3 nM. In addition, the “GPI IC50” value in the series on guinea pig ileum (GPI) is “partial”. Moreover, the IC50 with mouse vas deferens (MVD) (setting [3]) was 36.3 ± 3.58 nM. Further, on δ opioid receptor [2], affinity was put at a Ki of 1.72 ± 0.17 nM and the “Ki^μ/Ki^δ” value is on record as 15.3.

With `CN1CC[C@]2(c3cccc(O)c3)Cc3nc4ccccc4cc3C[C@H]2C1` [TAN-67, 2-methyl-4α,α-(3-hydroxyphenyl)-1,2,3,4,4a,5,12,12aα-octahydroquinolino[2,3,3-g]isoquinoline], the antinociceptive effect entry in the series with mouse tail flick test was “no significant antinociceptive effect”.

Turning to `N[C@@H](Cc1ccc(O)cc1)C(=O)N1Cc2ccccc2C[C@H]1C(=O)NCCc1ccccc1Br` [Example 5], the values for the Ki at μ opioid receptor and on δ opioid receptor [2] were 23.3 ± 7.7 nM and 1.24 ± 0.27 nM, respectively. Further, the IC50 came to 613 ± 26 nM in the series with guinea pig ileum (GPI) and 13.9 ± 1.9 nM with mouse vas deferens (MVD) (setting [3]). The “GPI/MVD IC50 ratio” value in the series on mouse vas deferens (MVD) is recorded as 44.1. Also, the “Ki^μ/Ki^δ” value at δ opioid receptor [2] worked out at 18.8.

Consider `N[C@@H](Cc1ccc(O)cc1)C(=O)N1Cc2ccccc2C[C@H]1C(=O)NCC(CO)c1ccccc1` (single isomer, unassigned) [Example 28], for which the Ki came out at 242 ± 20 nM on μ opioid receptor and 7.8 ± 2.8 nM on δ opioid receptor [2]. The IC50 with guinea pig ileum (GPI) is greater than 10000 nM; with mouse vas deferens (MVD) (setting [3]) it was 92.6 ± 6 nM. For the same compound, in the series with mouse vas deferens (MVD), the “GPI/MVD IC50 ratio” value is listed as greater than 108. The “Ki^μ/Ki^δ” value at δ opioid receptor [2] is on record as 31.0.

`C=CCN1C[C@H](C)N([C@H](c2ccc(C(=O)N(CC)CC)cc2)c2cccc(O)c2)C[C@H]1C` (racemic) [BW 373U86, (±)-4-(a-R*)-a-(2S*,5R*)-4-allyl-2,5-dimethyl-1-piperazinyl)-3-hydroxybenzyl)-N,N-diethylbenzamide]: the toxicity in mice result in the series with mice is “produced significant toxicity, manifested behaviorally as convulsions and barrel rolling”.

`NC(=O)C(CNC(=O)[C@@H]1Cc2ccccc2CN1C(=O)[C@@H](N)Cc1ccc(O)cc1)c1ccccc1` (single isomer, unassigned) [Example 18] gave a Ki at μ opioid receptor of 191 ± 19 nM. The compound further displayed an IC50 in the series on guinea pig ileum (GPI) greater than 10000 nM. The “δ opioid agonist character (full / partial)” value in the series with mouse vas deferens (MVD) (conclusion from MVD and GPI assays) is recorded as “partial δ agonists”. Moreover, the “MVD IC50” value with mouse vas deferens (MVD) (setting [3]) was “partial agonist”. Besides, on δ opioid receptor [2], the Ki came out at 22.8 ± 2.5 nM and the “Ki^μ/Ki^δ” value turned out to be 8.38.

For `NC(Cc1ccc(O)cc1)C(=O)N1Cc2ccccc2CC1C(=O)NC1CC1c1ccccc1` (single isomer, unassigned) [Example 22], the Ki turned out to be 11.5 ± 1.1 nM at μ opioid receptor and 1.36 ± 0.15 nM at δ opioid receptor [2]. Further, the IC50 with guinea pig ileum (GPI) turned out to be 518 ± 147 nM; in the series on mouse vas deferens (MVD) (setting [3]), 7.31 ± 2.3 nM. In the series with mouse vas deferens (MVD), the “GPI/MVD IC50 ratio” value was 70.9. At δ opioid receptor [2], the “Ki^μ/Ki^δ” value was found to be 8.46.

`CCOC(=O)C(CNC(=O)[C@@H]1Cc2ccccc2CN1C(=O)[C@@H](N)Cc1ccc(O)cc1C)c1ccccc1` (single isomer, unassigned) [Example 31]: the results for the Ki at μ opioid receptor and on δ opioid receptor [2] were 79.7 ± 2.3 nM and 1.22 ± 0.04 nM, respectively. In addition, the IC50 in the series with guinea pig ileum (GPI) came to 869 ± 209 nM; in the series on mouse vas deferens (MVD) (setting [3]), 2.24 ± 0.33 nM. In the series with mouse vas deferens (MVD), the “GPI/MVD IC50 ratio” value amounted to 388. Besides, the “Ki^μ/Ki^δ” value on δ opioid receptor [2] amounted to 65.3.
